# Data from patent US9085550B2, “Ligands for estrogen related receptors and methods for synthesis of said ligands” (CITY OF HOPE, priority 2005, dated 2015).
# “And” between values parts separate entries of the source, which are not always exact repeats. Identical values can stand only once.
# Assays:
# Format in all cases: cell-based
# [1] = target: T1, GAL-mERRg (mouse ERRγ ligand binding domain fused to GAL4 DNA binding domain) (Mus musculus, UniProt P62509); experiment: GAL4 reporter transactivation assay in CV-1 cells, GAL-mERRg; conditions: for Fold activation, GAL-mERRg + PGC-1a / Fold activation, GAL-mERRg / Fold activation, Receptor ERRγ: CV-1; for Fold activation, GAL-mERRg + PGC-1a: reporter 0.42:vector 0.00875:PGC-1a 0.035; for Fold activation, GAL-mERRg: reporter 0.42:vector 0.00875, no PGC-1a; for Fold activation, Receptor ERRγ: Table 1, reporter 0.42:receptor vector 0.035:PGC-1a 0.035
# T1 construct: expressed in transfected cells; host or cells: CV-1
# T1 sequence (P62509 233-457 limits assumed): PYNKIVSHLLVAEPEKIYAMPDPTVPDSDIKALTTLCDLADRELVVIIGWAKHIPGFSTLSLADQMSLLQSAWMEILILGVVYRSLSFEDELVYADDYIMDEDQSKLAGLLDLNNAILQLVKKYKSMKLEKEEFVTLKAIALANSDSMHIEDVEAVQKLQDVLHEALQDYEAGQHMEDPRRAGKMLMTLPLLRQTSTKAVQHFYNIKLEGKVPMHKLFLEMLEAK
# [2] = test system: ERR; experiment: GAL4-ERR reporter assay in CV-1 cells, potency with versus without PGC-1a; conditions: activated ERR at lower doses in the presence of PGC-1a
# Procedure: Additional compounds were tested for their effects on ERR activation (Tables 3-6). DY159, DY162, DY163 and DY164 as well as DY131 can activate all three ERRs (ERRα/β/γ) in the presence of PGC-1a. […] Therefore, these compounds have two novel features yet to be reported: a) they are selective ERR modulators or coactivator-selective ligands, i.e., they activate ERR better in the presence of PGC-1a then the other coactivators that are normally present in CV-1 cells; and b) these are the first synthetic compounds reported to ACTIVATE ERRα. Previously reported compounds repress the constitutive activity of ERRα (see Willy et al., supra).
# Referring to Tables 1-6, cell based transactivation assays were performed in CV-1 cells as described. See Wang, H., Chen, J., Hollister, K., Sowers, L. C., Forman, B. M., Endogenous bile acids are ligands for the nuclear receptor FXR/BAR, Mol Cell 1999, 3, 543-553. ERR activity was assayed with a GAL4 reporter construct and fusion proteins containing the ligand binding domains of human ERRα, human ERR β and mouse ERRγ linked to the DNA binding domain of yeast GAL4. Human ERα and ERβ were examined as full-length proteins using an estrogen receptor responsive reporter construct.
# To test the effect of the compounds on ERR and ER, CV-1 cells were transiently transfected with expression vectors for the receptors along with appropriate reporter constructs according to methods known in the art. The receptors to be tested were expressed in CV-1 cells. Suitable reporter gene constructs are well known to skilled workers in the fields of biochemistry and molecular biology. All transfections additionally contained an expression vector with a cytomegalovirus promoter (pCMV-β-gal) as an internal control. Suitable constructs for use in these studies may conveniently be cloned into a cytomegalovirus expression vector (pCMV). For example, pCMV-β-gal contains the E. coli β-galactosidase gene expressed under control of the cytomegalovirus promoter/enhancer. Other vectors known in the art can be used in the methods of the present invention. […]
# [3] = test system: estrogen receptor responsive reporter construct; experiment: Estrogen receptor responsive reporter in CV-1 cells without receptor (control of Table 1); conditions: Table 1 second block
# Procedure: Human ERα and ERβ were examined as full-length proteins using an estrogen receptor responsive reporter construct.
# Suitable reporter gene constructs are well known to skilled workers in the fields of biochemistry and molecular biology. […] Other vectors known in the art can be used in the methods of the present invention.
# CV-1 cells for the activation assays were grown in Dulbecco's modified Eagle's medium supplemented with 10% resin charcoal-stripped fetal bovine serum, 50 U/ml penicillin G and 50 μg/ml streptomycin sulfate (DMEM-FBS) at 37° C. in 5% CO2. One day prior to transfection, cells were plated to 50-80% confluence using phenol red free DMEM-FBS.
# [4] = target: T2, GAL-L-hERRb (human ERRβ ligand binding domain fused to GAL4 DNA binding domain) (Homo sapiens, UniProt O95718); experiment: GAL4 reporter transactivation assay in CV-1 cells, GAL-L-hERRb; conditions: for Fold activation, GAL-L-hERRb + PGC-1a / Fold activation, GAL-L-hERRb / Fold activation, Receptor ERRβ: CV-1; for Fold activation, GAL-L-hERRb + PGC-1a: reporter 0.42:vector 0.00875:PGC-1a 0.035; for Fold activation, GAL-L-hERRb: reporter 0.42:vector 0.00875, no PGC-1a; for Fold activation, Receptor ERRβ: Table 1, reporter 0.42:receptor vector 0.035:PGC-1a 0.035
# T2 construct: expressed in transfected cells; host or cells: CV-1
# T2 sequence (O95718 208-432 limits assumed): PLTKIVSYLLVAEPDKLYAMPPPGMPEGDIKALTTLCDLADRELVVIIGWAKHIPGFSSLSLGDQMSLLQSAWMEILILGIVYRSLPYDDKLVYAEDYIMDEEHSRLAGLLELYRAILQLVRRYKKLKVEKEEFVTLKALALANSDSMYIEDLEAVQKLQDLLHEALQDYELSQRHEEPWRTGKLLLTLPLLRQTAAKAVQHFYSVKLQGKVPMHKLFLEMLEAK
smiles,measurement,setting,value
"CCN(CC)c1ccc(C=NNC(=O)c2ccc(O)cc2)cc1 [DY131, 4-Hydroxy-benzoic acid (4-diethylamino-benzylidene)-hydrazide]","Fold activation, GAL-mERRg + PGC-1a",[1]; 0.3 μM,1.38 fold
same,"Fold activation, GAL-mERRg + PGC-1a",[1]; 1 μM,1.59 fold
same,"Fold activation, GAL-mERRg + PGC-1a",[1]; 3 μM (first 3 μM column),2.65 fold
same,"Fold activation, GAL-mERRg + PGC-1a",[1]; 3 μM (second 3 μM column),2.29 fold
same,"Fold activation, GAL-mERRg + PGC-1a",[1]; 10 μM,2.82 fold
same,"Fold activation, GAL-mERRg + PGC-1a",[1]; 30 μM,3.09 fold
same,"Fold activation, GAL-mERRg",[1]; 0.3 μM,0.87 fold
same,"Fold activation, GAL-mERRg",[1]; 1 μM,0.92 fold
same,"Fold activation, GAL-mERRg",[1]; 3 μM (first 3 μM column),1.26 fold
same,"Fold activation, GAL-mERRg",[1]; 3 μM (second 3 μM column),1.70 fold
same,"Fold activation, GAL-mERRg",[1]; 10 μM,1.49 fold
same,"Fold activation, GAL-mERRg",[1]; 30 μM,1.91 fold
same,"Fold activation, Receptor ERRγ",[1]; 3 μM,5 fold and 5.0 fold
same,"Fold activation, Receptor ERRγ",[1]; 10 μM,5.9 fold
same,"Fold activation, Receptor ERRγ",[1]; 30 μM,6.6 fold
same,Activation of ERRγ,[1]; in the presence of PGC-1a,can activate
same,Potency of ERR activation with versus without PGC-1a,[2],more potent activators in the presence of PGC-1a than without
same,"Fold activation, Receptor — (second block)",[3]; 3 μM,1.0 fold
same,"Fold activation, Receptor — (second block)",[3]; 10 μM,1.1 fold
same,"Fold activation, Receptor — (second block)",[3]; 30 μM,1.0 fold
same,"Fold activation, GAL-L-hERRb + PGC-1a",[4]; 0.3 μM,1.27 fold
same,"Fold activation, GAL-L-hERRb + PGC-1a",[4]; 1 μM,1.19 fold
same,"Fold activation, GAL-L-hERRb + PGC-1a",[4]; 3 μM (first 3 μM column),1.80 fold
same,"Fold activation, GAL-L-hERRb + PGC-1a",[4]; 3 μM (second 3 μM column),2.02 fold
same,"Fold activation, GAL-L-hERRb + PGC-1a",[4]; 10 μM,2.45 fold
same,"Fold activation, GAL-L-hERRb + PGC-1a",[4]; 30 μM,2.52 fold
same,"Fold activation, GAL-L-hERRb",[4]; 0.3 μM,0.84 fold
same,"Fold activation, GAL-L-hERRb",[4]; 1 μM,1.05 fold
same,"Fold activation, GAL-L-hERRb",[4]; 3 μM (first 3 μM column),1.26 fold
same,"Fold activation, GAL-L-hERRb",[4]; 3 μM (second 3 μM column),1.15 fold
same,"Fold activation, GAL-L-hERRb",[4]; 10 μM,2.14 fold
same,"Fold activation, GAL-L-hERRb",[4]; 30 μM,2.46 fold
same,"Fold activation, Receptor ERRβ",[4]; 3 μM,1.9 fold
same,"Fold activation, Receptor ERRβ",[4]; 10 μM,3.1 fold
same,"Fold activation, Receptor ERRβ",[4]; 30 μM,3.8 fold
same,Fold activation of ERRβ,"[4]; Table 1 conditions, concentrations of 10-30 μM",3-4 fold
same,Activation of ERRβ,[4]; in the presence of PGC-1a,can activate
